# Measured values reported in PMC1241434 (Environmental Health Perspectives, 2003).
# Experiments:
# [1] = biological target: T1, human estrogen receptor-alpha (hER alpha) (Homo sapiens, UniProt P03372); assay: hER alpha reporter gene assay in CHO cells, agonist mode; conditions: for estrogenic activity of steroids: at the concentrations tested; for hER-mediated transcriptional activity (estrogenic activity): 10^-5 M, absence of E2
# T1 sequence (P03372 1-595): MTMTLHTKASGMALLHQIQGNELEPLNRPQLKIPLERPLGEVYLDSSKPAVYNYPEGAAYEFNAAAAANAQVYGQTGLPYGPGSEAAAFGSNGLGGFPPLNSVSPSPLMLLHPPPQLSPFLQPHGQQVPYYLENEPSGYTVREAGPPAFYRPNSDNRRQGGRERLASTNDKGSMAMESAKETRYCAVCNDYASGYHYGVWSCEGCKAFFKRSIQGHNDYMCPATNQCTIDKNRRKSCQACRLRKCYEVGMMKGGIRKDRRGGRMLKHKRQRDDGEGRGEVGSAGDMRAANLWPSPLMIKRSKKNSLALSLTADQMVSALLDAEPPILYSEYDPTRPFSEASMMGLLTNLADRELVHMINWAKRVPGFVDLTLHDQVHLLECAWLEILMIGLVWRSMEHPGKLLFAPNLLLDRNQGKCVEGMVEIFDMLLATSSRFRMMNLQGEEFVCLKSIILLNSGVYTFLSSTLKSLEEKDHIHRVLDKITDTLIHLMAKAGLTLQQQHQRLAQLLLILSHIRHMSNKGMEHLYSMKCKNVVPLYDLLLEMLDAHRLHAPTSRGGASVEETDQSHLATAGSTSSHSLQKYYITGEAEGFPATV
# [2] = biological target: T2, human androgen receptor (hAR) (Homo sapiens, UniProt P10275); assay: hAR reporter gene assay in CHO cells, agonist mode; conditions: for hAR-mediated transcriptional activity (androgenicity): 10^-5 M, absence of DHT
# T2 sequence (P10275 1-920): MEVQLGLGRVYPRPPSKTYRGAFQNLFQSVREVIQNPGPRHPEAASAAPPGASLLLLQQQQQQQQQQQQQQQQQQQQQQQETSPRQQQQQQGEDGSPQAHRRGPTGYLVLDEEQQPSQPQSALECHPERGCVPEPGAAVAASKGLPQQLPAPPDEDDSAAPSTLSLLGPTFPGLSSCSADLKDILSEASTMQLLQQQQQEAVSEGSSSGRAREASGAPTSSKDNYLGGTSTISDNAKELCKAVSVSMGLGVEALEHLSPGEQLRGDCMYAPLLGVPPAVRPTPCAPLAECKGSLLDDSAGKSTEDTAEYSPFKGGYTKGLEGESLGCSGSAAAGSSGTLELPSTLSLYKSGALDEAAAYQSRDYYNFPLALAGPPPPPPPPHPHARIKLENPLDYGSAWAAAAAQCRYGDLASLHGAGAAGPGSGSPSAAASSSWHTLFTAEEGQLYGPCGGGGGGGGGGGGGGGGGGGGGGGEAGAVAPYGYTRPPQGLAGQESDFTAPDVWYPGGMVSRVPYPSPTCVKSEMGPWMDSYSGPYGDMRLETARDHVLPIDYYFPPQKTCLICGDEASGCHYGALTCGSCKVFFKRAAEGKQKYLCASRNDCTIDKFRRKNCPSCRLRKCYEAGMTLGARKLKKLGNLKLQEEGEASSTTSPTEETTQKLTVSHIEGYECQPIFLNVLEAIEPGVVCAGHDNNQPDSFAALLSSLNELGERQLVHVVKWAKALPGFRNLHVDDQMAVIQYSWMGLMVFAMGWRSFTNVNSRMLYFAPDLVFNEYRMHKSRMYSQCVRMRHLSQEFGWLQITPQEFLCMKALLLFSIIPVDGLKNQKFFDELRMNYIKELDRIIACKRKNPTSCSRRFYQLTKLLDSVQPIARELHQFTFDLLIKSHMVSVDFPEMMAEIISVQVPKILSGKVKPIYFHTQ
# [3] = system: estrogenic activity; conditions: 10^-5 M; ref Nishikawa et al. (2000); cited from earlier work
# [4] = biological target: T2, human androgen receptor (hAR); assay: hAR reporter gene assay in CHO cells, antagonist mode; conditions: for inhibition of hAR-mediated transcriptional activity by DHT: 10^-5 M, presence of 10^-10 M DHT
# [5] = system: CHO-K1 cells; assay: Renilla luciferase activity as toxicity control in transfected CHO cells; conditions: conditions of the hAR antagonist assay, data not shown
# [6] = biological target: T1, human estrogen receptor-alpha (hER alpha); assay: hER alpha reporter gene assay in CHO cells, antagonist mode; conditions: 10^-5 M, presence of 10-11 M E2, versus vehicle
# [7] = biological target: T3, human AR (Homo sapiens, UniProt P10275); assay: Competitive binding assay for AR; conditions: ratio of IC50 of mibolerone to that of test compound, mibolerone set at 100
# T3 sequence (P10275 1-920): T2 sequence (P10275 1-920)
# [8] = biological target: T4, human ER (Homo sapiens, UniProt P03372); assay: Competitive binding assay for ER; conditions: for RBA-E (relative binding affinity for hER): ratio of IC50 of DES to that of test compound, DES set at 100
# T4 sequence (P03372 1-595): T1 sequence (P03372 1-595)
Structure (SMILES),estrogenic activity of steroids [1],hAR-mediated transcriptional activity (androgenicity) [2],hER-mediated transcriptional activity (estrogenic activity) [1],inhibition of hAR-mediated transcriptional activity by DHT [4],effect on cellular viability (Renilla luciferase activity) [5],effect on estrogenic activity of E2 (antiestrogenic activity) [6],RBA-A (relative binding affinity for hAR) [7],RBA-E (relative binding affinity for hER) [8],further results
"C[C@]12CC[C@H]3[C@@H](CCC4=CC(=O)CC[C@@]43C)[C@@H]1CC[C@@H]2O [testosterone, reference compound]",positive by this assay at high concentrations,–,–,–,–,–,–,–,–
"CC(=O)[C@H]1CC[C@H]2[C@@H]3CCC4=CC(=O)CC[C@]4(C)[C@H]3CC[C@]12C [progesterone, reference compound]",inactive,–,–,–,–,–,–,–,–
"C[C@]12CC[C@@H]3c4ccc(O)cc4CC[C@H]3[C@@H]1CCC2=O [estrone, reference compound]",–,–,–,–,–,–,–,–,androgenic activity of steroids ([2]; at the concentrations tested): only low activity
"O=[N+]([O-])c1ccc(Oc2c(Cl)cc(Cl)cc2Cl)cc1 [CNP, 2,4,6-trichlorophenyl-4-nitrophenyl ether]",–,weakly androgenic,potent estrogenic activity,inhibited,did not affect the cellular viability,did not show any significant differences,8.64,< 0.0009,"estrogenic activity in yeast two-hybrid assay [3]: negative; antiandrogenic potency, fold higher than o,p-DDT ([4]; IC50 ratio versus o,p-DDT): ~10 fold; antiandrogenic potency, fold higher than p,p-DDE ([4]; IC50 ratio versus p,p-DDE): ~14 fold; antiandrogenic potency, fold higher than vinclozolin ([4]; IC50 ratio versus vinclozolin): approximately 3.5 fold; effect on the binding of E2 to hER [8]: very low"
"Clc1ccc(C(c2ccccc2Cl)C(Cl)(Cl)Cl)cc1 (centres unmarked) [o,p-DDT, 1,1,1-trichloro-2-(p-chlorophenyl)-2-(o-chlorophenyl)ethane, reference compound]",–,–,potent estrogenic activity,–,–,did not show any significant differences,–,–,–
"Nc1ccc(Oc2c(Cl)cc(Cl)cc2Cl)cc1 [CNP-amino, 2,4,6-trichlorophenyl-4-aminophenyl ether]",–,no androgenicity,potent estrogenic activity,inhibited,did not affect the cellular viability,did not show any significant differences,0.33,0.036,"estrogenic activity, fold higher than p,p-DDT ([1]; versus p,p-DDT): about 4 fold; antiandrogen intensity relative to CNP ([4]; ratio to CNP): more than 1/10"
